The values that follow are results of earlier work, collected in US9233901B2, “Synthetic navel orangeworm pheromone composition and methods relating to production of same” (Suterra LLC, priority 2008, dated 2016).

The structures appear in SMILES notation.

The subject of the data set is major pheromone binding protein (AtraPBP). The settings on record: shown in other studies (Leal et al. 2005).

As to `CC/C=C\C=C/CCCCCCCCCC=O` [HDAL, (Z, Z)-11,13-hexadecadienal], the “affinity for binding to a major pheromone binding protein (AtraPBP)” value is “high affinity”.
